Entries after “also recorded” stand apart in the source; their conditions may differ.

The test system of assay [1] is mda-5 expression. The assay is described as follows: Northern blot analysis of mda-5 expression in HO-1 human melanoma cells. To be noted: HO-1 cells; for mda-5 expression (steady-state mda-5 message level): treated 24 hr, Northern blot. Format: cell-based. The protocol:
(§1) FIGS. 2A–2B. Northern blot analysis of mda-5 expression by various compounds inducing differentiation in HO-1 human melanoma cells. RNA samples were extracted from cells treated as indicated for 24 hr. FIG. 2A. HO-1 human melanoma cells. FIG. 2B. Early passage human skin fibroblast cells. Northern hybridization was performed as in Materials and Methods.
(§2) FIGS. 4A–4B. Northern blot analysis of mda-5 expression by ligands for various membrane receptors. RNA samples were extracted from cells treated as indicated for 24 hr. FIG. 4A. HO-1 human melanoma cells. FIG. 4B. Early passage human skin fibroblast cells. Northern hybridization was performed as in Materials and Methods.
FIG. 5. Northern blot analysis and time course of mda-5 expression. RNA samples were extracted from HO-1 cells treated with the indicated reagents and harvested at the indicated time after treatment. Northern blotting was performed as in Materials and Methods.
(§3) FIGS. 7A–7C. […] A. Northern blot analysis of mda-5. […] Cells were harvested at the indicated time after actinomycin D treatment. Northern hybridization was performed as in Materials and Methods. FIG. 7B. Nuclear run-on assays for determining mda-5 transcription rates. Nuclei were prepared from HO-1 melanoma cells treated with the indicated reagent(s) for 4 hr. Blots were prepared and hybridized as described in Materials and Methods. […] FIG. 7C. Northern blot analysis of mda-5 expression after blocking protein synthesis by cycloheximide (CHX). RNA samples were extracted from HO-1 melanoma cells pretreated with 50 μg/ml cycloheximide for 30 min and treated with the indicated reagents for 8 hr. Abbreviations and concentrations of indicated reagents are as in FIG. 4.
(§4) Cell Culture and Treatment Protocol: HO-1 human melanoma cells, early passage human skin fibroblast (purchased from ATCC) and 293T cells were grown in Dulbecco's modified Eagle's medium supplemented with 10% fetal bovine serum at 37° C. in a 5% CO2/95% air humidified incubator. Prior to treatment, cells were refed with fresh medium and exposed to the indicated compound(s) at the concentrations specified in the figure legends.
(§5) Northern Blot Analyses and Nuclear Run-On Assays: Total cellular RNA samples were prepared by guanidium isothiocyanate/phenol extraction followed by isopropanol precipitation. Ten 10 μg of total RNA were resolved in 1% agarose gels with formaldehyde and were transferred to Nylon membranes. EcoRI fragment of mda-5 cDNA (2.5 kb) was labeled with 32P using a multiprime labeling kit (Boehringer Mannheim) and used to probe the transferred membrane. Nuclear run-on assays were performed as previously described ((17) Su et al., 1993, 1999). Probes used for nuclear run-on assays were prepared by RT-PCR and included the mda-5 5′, 9–837 bp; mda-5 3′, 2531–3365 bp; and GAPDH fragment.

The subject of the next assay is mda-5 transcription. In words: Nuclear run-on assays for mda-5 transcription rates in HO-1 melanoma cells. Format: cell-based, human. To be noted: HO-1 cells treated 4 hr. On the procedure:
as §3
Northern Blot Analyses and Nuclear Run-On Assays: Total cellular RNA samples were prepared by guanidium isothiocyanate/phenol extraction followed by isopropanol precipitation. Ten 10 μg of total RNA were resolved in 1% agarose gels with formaldehyde and were transferred to Nylon membranes. EcoRI fragment of mda-5 cDNA (2.5 kb) was labeled with 32P using a multiprime labeling kit (Boehringer Mannheim) and used to probe the transferred membrane. Nuclear run-on assays were performed as previously described ((17) Su et al., 1993, 1999). […]

Assay [2] relates to mda-5 expression. The assay is described as follows: Northern blot analysis of mda-5 expression in early passage human skin fibroblast cells. The class given is cell-based. On the procedure: as §1, §2, §4, §5
For the next assay, the system named is mda-5 promoter. In words: mda-5 promoter luciferase reporter in HO-1 cells (transient and stable clones). The class given is cell-based, human. Background: In a reporter assay the amount or activity of a reporter protein is the signal.

Procedure for mda-5 promoter: FIG. 11: Screening of stable human HO-1 melanoma clones for promoter activity of stably integrated mda-5 reporter construct. Transfected HO-1 cells were selected by Puromycin drug selection and individual colonies analyzed for induction of luciferase activity in the presence of IFN-β. Values are expressed as fold change against uninduced values of luciferase activity.
FIG. 12: Induction kinetics of mda-5 promoter activity. Stable clones #20 and #40 were treated with IFN-β and samples were harvested and analyzed for luciferase activity at the times indicated.
FIG. 13: Responsiveness of the mda-5 promoter to IFN-β levels: Stable clones #20 and #40 were treated with IFN-β and samples were harvested and analyzed for luciferase activity 48h after initiation of treatment. The extent of activity was normalized based on equivalent protein content and performed in duplicate for each clone.
FIGS. 14A–14B: Responsiveness of the mda-5 promoter to various inducers: FIG. 14A. HO-1 cells transiently transfected with the mda-5 reporter and treated for 48 h with equivalent units of IFNs α, β and γ and TNF-α and poly IC:IC. The luciferase activity was expressed as fold increase over untreated control cells. FIG. 14B. Clone #40 was treated with equivalent units of the indicated IFNs for 48 h and luciferase activity expressed as fold activation over untreated cells determined. […]

As for `C[C@@H]1C[C@@H]([C@H](O)CC2CC(=O)NC(=O)C2)C(=O)[C@@H](C)C1` [Cycloheximide, cycloheximide], the “effect of cycloheximide pre-treatment on mda-5 steady-state mRNA levels induced by IFNs, TNF and poly IC” value in the assay with mda-5 expression [1] (50 μg/ml cycloheximide 30 min, then inducers 8 hr) is recorded as “does not inhibit”. Regarding `C=C(C)[C@@]12O[C@@]3(c4ccccc4)O[C@@H]1[C@@H]1[C@@H]4O[C@]4(CO)[C@@H](O)[C@]4(O)C(=O)C(C)=C[C@H]4[C@@]1(O3)[C@H](C)[C@H]2OC(=O)/C=C/C=C/c1ccccc1` [MEZ, mezerein], in the assay on mda-5 expression [1] (24 hr), the “augmentation of mda-5 expression by MEZ in combination with IFN-β” value is “approximately 3 fold” and the “augmentation of mda-5 expression by MEZ in combination with IFN-γ” value was around 5 fold. Besides, the “time at which mda-5 message level begins increasing / induction first apparent” value with mda-5 expression [1] (time course) stood at 48 h. For the same compound, the “mda-5 expression (steady-state mda-5 message level)” value with mda-5 expression [1] was “does not induce mda-5 expression”. For the same compound, in the assay on mda-5 transcription, the “mda-5 transcription (nuclear run-on)” value is “negligible levels of transcription”. As to `CCCCCCCCCCCCCC(=O)O[C@@H]1[C@@H](C)[C@@]2(O)[C@@H](C=C(CO)C[C@]3(O)C(=O)C(C)=C[C@@H]23)[C@@H]2C(C)(C)[C@]12OC(C)=O` [TPA, 12-O-tetradecanoylphorbol-13-acetate], the “mda-5 expression (steady-state mda-5 message level)” value in the assay with mda-5 expression [1] is “fail to significantly induce mda-5 expression”.

As for `CC1=C(/C=C/C(C)=C/C=C/C(C)=C/C(=O)O)C(C)(C)CCC1` [all trans retinoic acid, all-trans-retinoic acid], the “mda-5 expression (steady-state mda-5 message level)” value with mda-5 expression [1] is reported as “fail to significantly induce mda-5 expression”. Still for that read-out and setting: the entry for `Nc1ncnc2c1ncn2[C@@H]1O[C@@H]2COP(=O)(O)O[C@H]2[C@H]1O` [cyclic-AMP, 3′–5′ cyclic adenosine monophosphate] is “fail to significantly induce mda-5 expression”; for `C[S+](C)[O-]` [dimethyl sulfoxide] it is “fail to significantly induce mda-5 expression”. Still for that read-out and setting: the entry for `COc1c(C)c2c(c(O)c1C/C=C(\C)CCC(=O)O)C(=O)OC2` [mycophenolic acid] is “fail to significantly induce mda-5 expression”. As to IFN-α, the “mda-5 expression (steady-state mda-5 message level)” value in the assay on mda-5 expression [1] is “induce mda-5 expression; also recorded: increase mda-5 transcript levels, but the magnitude of this effect is less than with IFN-β or dsRNA”. Moreover, in the assay on mda-5 expression [2], the mda-5 expression entry is listed as “induce mda-5 expression”.

As for IFN-γ: interferon-γ, in the assay on mda-5 expression [1], the “mda-5 expression (steady-state mda-5 message level)” value is given as “induce mda-5 expression; also recorded: increase mda-5 transcript levels, but the magnitude of this effect is less than with IFN-β or dsRNA”. Further, the mda-5 expression entry in the assay on mda-5 expression [2] is “induce mda-5 expression”. For the compound TNF-α, the “mda-5 expression (steady-state mda-5 message level)” value with mda-5 expression [1] is “induce mda-5 expression; also recorded: comparable levels as seen with IFN-α”. The mda-5 expression entry in the assay with mda-5 expression [2] is recorded as “induce mda-5 expression”. Turning to poly IC, the “mda-5 expression (steady-state mda-5 message level)” value is listed as “induce mda-5 expression” with mda-5 expression [1] and “dramatically increases” in the assay on mda-5 expression [1] (listed as dsRNA). In the assay with mda-5 expression [2], the mda-5 expression entry is “induce mda-5 expression”. The “responsiveness of mda-5 promoter construct / clones to inducer” value in the assay with mda-5 promoter is “most responsive”.

Source of the values: patent US7220575B2, “Melanoma differentiation associated gene-5 and promoter and uses thereof” (priority 2000, dated 2007).
